The values below come from PMC10611578, “Aβ1-6A2V(D) peptide, effective on Aβ aggregation, inhibits tau misfolding and protects the brain after traumatic brain injury” (Molecular Psychiatry, 2023).

Square brackets hold non-standard residues; d marks the D form. Peptide text beside a SMILES is read from it.

For this test, the system named is tau (P301L mouse brain homogenate). Put plainly: Western blot of total tau level in P301L brain lysate. Particulars: 50 µM, 2 h at 25 °C, 30 µg protein/100 µL, PBS pH 7.4, DAKO/actin band; mean ± SD, N = 3, p < 0.05. In kind it is biochemical, human tau with P301L mutation, JNPL3 mice. The source says:
Male JNPL3 mice expressing 0N4R human tau with the P301L mutation (P301L) were obtained from Taconic Biosciences (New York, USA) (Tau Model 2508). Controls were non-transgenic (Non-tg) male mice with the same mixed C57BL/6, DBA/2, SW genetic background as P301L mice. Triple transgenic mice harboring human PS1(M146 V), APP(SW), and MAPT(P301L) transgenes, referred to as 3xTg-AD, were kindly provided by Dr. Oddo [34]. Male and female C57BL/6 J mice, referred to as wild type (WT), were purchased from Envigo (Italy).
Fig. 2 Effect of Aβ1-6A2V-TAT(D) on the toxicity caused in C. elegans by misfolded tau in P301L and TBI brain homogenates. A Brains from P301L mice were homogenized in 10 mM PBS, pH 7.4, and given to worms alone or in the presence of Aβ1-6A2V-TAT(D). B Worms were administered with brain homogenate (30 µg protein/100 worms/100 µL) in the absence or presence of Aβ1-6A2V-TAT(D) (0-200 µM). […] E Representative western blotting showing the total level of tau and tau quantification expressed as the mean volume of the DAKO band immunoreactivity/actin band. […] The reaction was then stopped, and samples were analyzed by western blot. […]
Lysates from brain homogenates of P301L mice (30 µg protein/100 µL) incubated for 2 h at 25°C with 50 µM Aβ1-6A2V-TAT(D), 50 µM Aβ1-6A2V(D), 50 µM TAT or 10 mM PBS, pH 7.4, were analyzed by immunoblotting using 10% SDS-PAGE gel and Western blotting analysis. […]
On the technique in general: Immunoblotting shows a protein as a band on a membrane.

On to `CC(C)[C@@H](NC(=O)[C@H](N)CC(=O)O)C(=O)N[C@H](CCC(=O)O)C(=O)N[C@H](Cc1ccccc1)C(=O)N[C@H](CCCNC(=N)N)C(=O)N[C@H](Cc1c[nH]cn1)C(=O)NCC(=O)NCC(=O)NCC(=O)NCC(=O)NCC(=O)N[C@H](CCCNC(=N)N)C(=O)N[C@H](CCCCN)C(=O)N[C@H](CCCCN)C(=O)N[C@H](CCCNC(=N)N)C(=O)N[C@H](CCCNC(=N)N)C(=O)N[C@H](CCC(N)=O)C(=O)N[C@H](CCCNC(=N)N)C(=O)N[C@H](CCCNC(=N)N)C(=O)N[C@H](CCCNC(=N)N)C(=O)O` [Aβ1-6A2V-TAT(D)] (H-[dD][dV][dE][dF][dR][dH]GGGGG[dR][dK][dK][dR][dR][dQ][dR][dR][dR]-OH; N-terminus assumed), for which the “Total tau protein level in P301L brain homogenate” value was “significantly reduced the tau protein level”.
